Measured values from patent US20030004140A1, “Methods for modulating cell-adhesion mediated drug resistance” (priority 2000, published 2003).
Like-named read-outs stand apart in the source and are kept apart here. Marks after values point to notes of the source that are not given here.

Tests used:
[1] = tested on: K562 cells; assay: Adhesion of K562 cells to FN in presence of BCR/ABL inhibitor; type: cell-based; conditions: at the concentrations of inhibitor used in cytotoxicity assays
Description: Cellular adhesion to FN is determined. In some experiments, cells are pre-incubated for 15 minutes with P4G9, P1D6, P4C10, B3B11, or isotype antibody controls prior to application to wells.
The BCR/ABL kinase is believed to be critical to the survival of CML cells through its effects on a number of signal transduction pathways. Inhibitors of this fusion protein show promise as apoptosis-inducing drugs in CML cells. BCR/ABL inhibition by relatively high doses of the tyrphostin AG957 can have negative effects on FN adhesion. At the concentrations of inhibitor used in cytotoxicity assays, the adhesion of K562 cells to FN is not affected by more than 20-40 percent.

[2] = tested on: K562 cells; assay: MTT cytotoxicity assay, FN adhered vs suspension; type: cell-based
Description: Plastic 96-well Immunosorp plates (Nunc, Denmark) are coated with 50 μl (40 μg/ml) FN (Life Technologies) or BSA overnight. Cells are washed once and resuspended in serum-free RPMI 1640, then 2×10^4 (K562) cells are added to each FN coated well. 8×10^3 (K562) cells are added to BSA coated wells. Cells are incubated for 2 hours at 37° C., washed with serum free media, and put back into serum-containing media. Following 24 hours in a tissue culture incubator, drug or vehicle control is added to each well for 90 minutes, media is removed and replaced by drug-free media for 96 hours. In some experiments, the drug is allowed to remain in each well for 96 hours. 50 μl 3-[4,5-Dimethylthiazol-2-yl]-2,5-diphenyltetrazolium bromide; Thiazolyl blue (MTT dye) (Sigma) is added to each well for 4 hours, plates are centrifuged and each well aspirated. Dye is solubilized with 100 μl DMSO and plates are read at 540 nm on an automated microtiter plate reader. A blank well containing only medium and drug is also run as a control in all experiments. IC50 values are calculated by linear regression analysis of percent survival vs. drug concentration.
The MTT assay is used to detect differences in the drug sensitivity of FN adhered vs. suspension-cultured cells following a 90 minutes or 96 hours (continuous) exposure to either mitoxantrone or melphalan (L-phenylalanine mustard or LPAM). After a 96 hour period in a cell incubator, cell survival is determined by the ability of viable cells to reduce MTT dye to formazan. IC50 values are derived through linear regression of the log-linear dose-response plots for each cell line to each drug. Student's T-test is used to analyze differences in drug response using data collected from at least three different experiments. FIGS. 8A and 8B depict representative continuous exposure experiments using mitoxantrone and LPAM, respectively.

[3] = tested on: BCR/ABL-associated tyrosine kinase activity; assay: Anti-phosphotyrosine Western blotting; conditions: K562 cells, 20 μM, 4 hour treatment
[4] = tested on: K562 cells; assay: Annexin V apoptosis analysis, FN adhered vs suspension; type: cell-based
[5] = tested on: 8226/S cells; assay: Adhesion of 8226 cells to fibronectin after bisphosphonate treatment; type: cell-based, human; conditions: 100 micromolar for 1.5 hours before plating
[6] = tested on: 8226/S; type: cell-based, human
[7] = tested on: 8226/S myeloma cells; assay: MTT cytotoxicity assay, FN-adhered vs BSA/non-adhered cells; type: cell-based, human; conditions: for IC50: Homo sapiens; for mean difference FN-adhered vs BSA: n=3, 1 hour drug exposure
[8] = tested on: K562/VLA-4 cells; assay: Annexin V apoptosis, FN adhesion with integrin blocking antibodies; type: cell-based; conditions: 100 μM, 90 minutes
[9] = tested on: 8226/S myeloma cells; assay: Annexin V flow cytometry analysis of apoptosis, FN-adhered vs non-adhered; type: cell-based, human
[10] = tested on: K562/pcDNA3.1 cells; assay: Annexin V apoptosis, FN adhesion with integrin blocking antibodies; type: cell-based; conditions: 100 μM, 90 minutes
[11] = α4 blocking antibody prior to FN adhesion
[12] = α5 blocking antibody prior to adhesion
[13] = 1 uM, 1 hour exposure, Annexin V 24 hours later

COC(=O)c1ccc(NCc2cc(O)ccc2O)cc1 [AG957]
effect on adhesion of K562 cells to FN [1]: 20-40%
IC50 ([2]; FN adhered, continuous exposure (96 hours), read-out: Fibronectin mean IC50): 12900 nM
Fold resistance (FN adhered over suspension) ([2]; continuous exposure (96 hours)): 3.6 fold
IC50 ([2]; continuous exposure (96 hours), read-out: Suspension mean IC50): 3600 nM
BCR/ABL associated tyrosine phosphorylation [3]: completely abrogated

Nc1ccn([C@@H]2O[C@H](CO)[C@@H](O)[C@@H]2O)c(=O)n1 [Ara-C]
% Control death ([4]; 100 μM, cont. exp.): 54.9* %
FN: mean death ([4]; 100 μM, cont. exp.): 6.2 ± 1.6%
Suspension: mean death ([4]; 100 μM, cont. exp.): 11.3 ± 5.5%

O=C(O)CN(CCN(CC(=O)O)CC(=O)O)CC(=O)O [EDTA]
effect on adhesion to fibronectin (FN) coated plates [5]: does not significantly affect cellular adhesion

N[C@@H](Cc1ccc(N(CCCl)CCCl)cc1)C(=O)O [LPAM, L-phenylalanine nitrogen mustard]
effect on cell surface integrin expression [6]: no immediate effects
IC50 ([2]; Homo sapiens, K562, 1.5 h, read-out: Fibronectin mean IC50): 190000 nM
IC50 ([2]; Homo sapiens, K562, 1.5 h, read-out: Suspension mean IC50): 29300 nM
IC50 ([2]; Homo sapiens, K562, 96 h, read-out: Fibronectin mean IC50): 57300 nM
IC50 ([2]; Homo sapiens, K562, 96 h, read-out: Suspension mean IC50): 25500 nM
Fold resistance (FN adhered over suspension) ([2]; continuous exposure (96 hours)): 2.25 fold
IC50 ([7]; 1 h, read-out: mean IC50, cells grown on BSA): 30000 nM
IC50 ([7]; read-out: mean IC50, FN-adhered cells): 48000 nM
mean difference FN-adhered vs BSA [7]: 1.7
level of cytoprotection by FN adhesion (in comparison to drug treated suspension cells) ([8]; adhering through α4 and α5): 30.0±1.5%
level of cytoprotection by FN adhesion [8, 11]: 28.4±5.0%
level of cytoprotection by FN adhesion [8, 12]: 20.6±1.9%
% Control death ([4]; 100 μM, 1 hr): 29.3* %
FN: mean death ([4]; 100 μM, 1 hr): 11.0 ± 8.3%
Suspension: mean death ([4]; 100 μM, 1 hr): 37.5 ± 24.0%
% Control death ([4]; 100 μM, cont. exp.): 58.5* %
FN: mean death ([4]; 100 μM, cont. exp.): 23.3 ± 6.4%
Suspension: mean death ([4]; 100 μM, cont. exp.): 39.8 ± 3.2%
percentage of apoptotic cells, FN-adhered ([9]; 50 uM, 24 hours): 16.53%
percentage of apoptotic cells, non-adhered ([9]; 50 uM, 24 hours): 21.5%
level of cytoprotection by FN adhesion (in comparison to drug treated suspension cells) ([10]; adhered through α5 alone): 29.9±5.3%
level of cytoprotection by FN adhesion [10, 11]: 29.6±2.3%
level of cytoprotection by FN adhesion [10, 12]: 0±11.1%

O=C1c2c(O)ccc(O)c2C(=O)c2c(NCCNCCO)ccc(NCCNCCO)c21 [Mitoxantrone, mitoxantrone]
Fold resistance (FN adhered over suspension) ([2]; 90 min. exposure): 3.72 fold
Fold resistance (FN adhered over suspension) ([2]; 90 min. exposure, listed as mitoxantrone): approximately 3.7 fold
IC50 ([2]; Homo sapiens, K562, 1.5 h, 90 min. exposure, read-out: Suspension mean IC50): 206 nM
IC50 ([2]; Homo sapiens, K562, 1.5 h, FN adhered, 90 min. exposure, read-out: Fibronectin mean IC50): 767 nM
IC50 ([2]; Homo sapiens, K562, FN adhered, continuous exposure (96 hours), read-out: Fibronectin mean IC50): 327 nM
IC50 ([2]; Homo sapiens, K562, continuous exposure (96 hours), read-out: Suspension mean IC50): 47.9 nM
Fold resistance (FN adhered over suspension) ([2]; continuous exposure (96 hours)): 6.83 fold
Fold resistance (FN adhered over suspension) ([2]; continuous exposure (96 hours), listed as mitoxantrone): 6.8 fold
% Control death ([4]; 10 μM, cont. exp.): 69.4* %
FN: mean death ([4]; 10 μM, cont. exp.): 29.7 ± 6.2%
Suspension: mean death ([4]; 10 μM, cont. exp.): 42.8 ± 8.4%
% Control death ([4]; 50 μM, 1 hr): 58.3* %
FN: mean death ([4]; 50 μM, 1 hr): 27.0 ± 9.4%
Suspension: mean death ([4]; 50 μM, 1 hr): 46.3 ± 8.4%

NCCC(O)(P(=O)(O)O)P(=O)(O)O [Pamidronate, 3-Amino-1-hydroxypropane-1,1-diphosphonic acid]
effect on adhesion to fibronectin (FN) coated plates [5]: effective in preventing FN adhesion

CC[C@]1(O)C[C@H]2CN(CCc3c([nH]c4ccccc34)[C@@](C(=O)OC)(c3cc4c(cc3OC)N(C=O)[C@H]3[C@@](O)(C(=O)OC)[C@H](OC(C)=O)[C@]5(CC)C=CCN6CC[C@]43[C@@H]65)C2)C1 [VCR, vincristine]
% Control death ([4]; 10 μM, cont. exp.): 70.2%
FN: mean death ([4]; 10 μM, cont. exp.): 12.5 ± 2.3%
Suspension: mean death ([4]; 10 μM, cont. exp.): 17.8 ± 6.4%

O=P(O)(O)C(O)(Cn1ccnc1)P(=O)(O)O [Zoledronate]
effect on adhesion to fibronectin (FN) coated plates [5]: effective in preventing FN adhesion

COc1cccc2c1C(=O)c1c(O)c3c(c(O)c1C2=O)C[C@@](O)(C(=O)CO)C[C@@H]3O[C@H]1C[C@H](N)[C@H](O)[C@H](C)O1 [doxorubicin]
effect on cell surface integrin expression ([6]; acute exposure, wide range of concentrations, 1-48 hours): no immediate effects
Response lower in FN-adhered cells compared to non-adhered controls ([7]; FIG. 1, one hour drug exposure): 12.6 fold
IC50 ([7]; 1 h, grown in suspension, one hour drug exposure, representative experiment FIG. 1, read-out: IC50, non-adhered cells): 85 nM
IC50 ([7]; 1 hour drug exposure, n=3, read-out: mean IC50, cells grown on BSA): 520 nM
IC50 ([7]; 24 hour pre-adhesion, 1 hour drug exposure, n=3, read-out: mean IC50, FN-adhered cells): 1630 nM
IC50 ([7]; FN-adhered 24 hours prior to one hour drug exposure, representative experiment FIG. 1, read-out: IC50, adhered cells): 485 nM
mean difference FN-adhered vs BSA [7]: 6.9
survival (mitogenic effect) ([7]; subtoxic concentrations, FN-adhered cells): > 100%
percentage of apoptotic cells, FN-adhered [9, 13]: 16.3%
percentage of apoptotic cells, non-adhered controls [9, 13]: 40.3%
